Assay results as given in publication PMC5988656, “Phase I studies of AZD1208, a proviral integration Moloney virus kinase inhibitor in solid and haematological cancers” (British Journal of Cancer, 2018).
“And” between values parts separate entries of the source, which are not always exact repeats. Identical values can stand only once.

What was measured:
Format in all cases: in vivo, human
advanced solid tumours = assay: Solid tumour study: tumour response (RECIST v.1.1); conditions: for Best response: CR / Best response: Death / Best response: Not evaluable / Best response: Partial response / Best response: Progression / Best response: Stable disease ≥6 weeks: RECIST criteria
Experimental: In the solid tumour study, responses were evaluated using RECIST v.1.1. Contrast-enhanced CTs of the chest, abdomen, pelvis and neck were performed at screening (≤28 days before the start of study treatment), every 6 weeks (±1 week) up to 12 weeks, and then every 12 weeks (±1 week) until discontinuation of study treatment or withdrawal of consent, starting from Day 1 of Cycle 1.

CYP3A4 = CYP3A4 activity assessed by 4-β-hydroxycholesterol levels, solid tumour study; conditions: for 4-β-hydroxycholesterol Day 15 concentration / 4-β-hydroxycholesterol ratio (Day 15/Day 1): individual subjects
Experimental: In the solid tumour study, blood samples for 4β-hydroxycholesterol analysis were collected pre-dose at Cycle 0, Day 1; Cycle 1 (Day 8 and 15); and Cycle 2, Day 15.
The activity of CYP3A4 was assessed by analysing 4-β-hydroxycholesterol levels in samples collected from five patients at AZD1208 doses of 700 or 800 mg.

p4E-BP1 S65 = assay: PD: phosphorylation of 4E-BP1 at S65 by NanoPro immunoassay, AML study
Experimental: For AZD1208 PD evaluations, bone marrow aspirates were collected (pretreatment and Cycle 1, Day 1, 2–6 h following administration of AZD1208) and peripheral blood samples were collected (pretreatment on Cycle 1, Day 1; and on-treatment at Cycle 1, Day 1 at 3, 6 and 24 h post-dose; Cycle 1, Day 14 at pre-dose, 3 and 6 h post-dose). Mononuclear cells were isolated, and protein lysates prepared, for subsequent analysis of phosphorylated BAD at S112 by MesoScale Discovery ELISA and phosphorylation of 4E-BP1 at S65 by NanoPro immunoassay [unpublished data: McEachern et al. 2018, manuscript in preparation]. Samples were considered evaluable when the baseline biomarker levels were above the background signal (as defined by buffer-only negative control samples) and within the linear range of assay. Additionally, only blood samples containing detectable blasts were considered for analysis.

relapsed/refractory AML = assay: AML study: antileukaemic activity (IWG response criteria)
From the text: The antileukaemic activity in AML was according to the International Working Group (IWG) response criteria for AML.[17] Response criteria were modified such that an M-1 marrow was defined as 1% to ≤5% and a partial response as >5% to 25%.[18]

[1] = Investigator assessed, 120 mg, n=4
[2] = Investigator assessed, 240 mg, n=6
[3] = Investigator assessed, 480 mg, n=6
[4] = Investigator assessed, 700 mg, n=7
[5] = Investigator assessed, 900 mg, n=9
[6] = Modified Cheson criteria, 120 mg, n=4
[7] = Modified Cheson criteria, 240 mg, n=6
[8] = Modified Cheson criteria, 480 mg, n=6
[9] = Modified Cheson criteria, 700 mg, n=7
[10] = Modified Cheson criteria, 900 mg, n=9

With `N[C@@H]1CCCN(c2c(/C=C3\SC(=O)NC3=O)cccc2-c2ccccc2)C1` [AZD1208] the “Discontinued study treatment due to disease progression, patients” value (advanced solid tumours; 35 patients) was 65.7%, the “Best response: CR” value (advanced solid tumours; 120 mg, n=3) was 0 n (%) and the “Best response: Death” value (advanced solid tumours; 120 mg, n=3) was 0 n (%). The “Best response: Not evaluable” value (advanced solid tumours; 120 mg, n=3) was 0 n (%), the “Best response: Partial response” value (advanced solid tumours; 120 mg, n=3) was 0 n (%) and the “Best response: Progression” value (advanced solid tumours; 120 mg, n=3) was 1 (33.3) n (%). For the same compound, the “Best response: Stable disease ≥6 weeks” value (advanced solid tumours; 120 mg, n=3) was 2 (66.7) n (%), the “Best response: CR” value (advanced solid tumours; 240 mg, n=7) was 0 n (%) and the “Best response: Death” value (advanced solid tumours; 240 mg, n=7) was 0 n (%). For the same compound, the “Best response: Not evaluable” value (advanced solid tumours; 240 mg, n=7) was 0 n (%), the “Best response: Partial response” value (advanced solid tumours; 240 mg, n=7) was 0 n (%) and the “Best response: Progression” value (advanced solid tumours; 240 mg, n=7) was 2 (28.6) n (%). For the same compound, the “Best response: Stable disease ≥6 weeks” value (advanced solid tumours; 240 mg, n=7) was 5 (71.4) n (%), the “Best response: CR” value (advanced solid tumours; 360 mg, n=5) was 0 n (%) and the “Best response: Death” value (advanced solid tumours; 360 mg, n=5) was 0 n (%). The “Best response: Not evaluable” value (advanced solid tumours; 360 mg, n=5) was 1 (20.0) n (%), the “Best response: Partial response” value (advanced solid tumours; 360 mg, n=5) was 0 n (%) and the “Best response: Progression” value (advanced solid tumours; 360 mg, n=5) was 3 (60.0) n (%). The “Best response: Stable disease ≥6 weeks” value (advanced solid tumours; 360 mg, n=5) was 1 (20.0) n (%), the “Best response: CR” value (advanced solid tumours; 540 mg, n=7) was 0 n (%) and the “Best response: Death” value (advanced solid tumours; 540 mg, n=7) was 0 n (%). The “Best response: Not evaluable” value (advanced solid tumours; 540 mg, n=7) was 1 (14.3) n (%), the “Best response: Partial response” value (advanced solid tumours; 540 mg, n=7) was 0 n (%) and the “Best response: Progression” value (advanced solid tumours; 540 mg, n=7) was 3 (42.9) n (%). For the same compound, the “Best response: Stable disease ≥6 weeks” value (advanced solid tumours; 540 mg, n=7) was 3 (42.9) n (%), the “Best response: CR” value (advanced solid tumours; 700 mg, n=6) was 0 n (%) and the “Best response: Death” value (advanced solid tumours; 700 mg, n=6) was 1 (16.7) n (%). For the same compound, the “Best response: Not evaluable” value (advanced solid tumours; 700 mg, n=6) was 2 (33.3) n (%), the “Best response: Partial response” value (advanced solid tumours; 700 mg, n=6) was 0 n (%) and the “Best response: Progression” value (advanced solid tumours; 700 mg, n=6) was 3 (50.0) n (%). The “Best response: Stable disease ≥6 weeks” value (advanced solid tumours; 700 mg, n=6) was 1 (16.7) n (%), the “Best response: CR” value (advanced solid tumours; 800 mg, n=5) was 0 n (%) and the “Best response: Death” value (advanced solid tumours; 800 mg, n=5) was 0 n (%). The “Best response: Not evaluable” value (advanced solid tumours; 800 mg, n=5) was 1 (20.0) n (%), the “Best response: Partial response” value (advanced solid tumours; 800 mg, n=5) was 0 n (%) and the “Best response: Progression” value (advanced solid tumours; 800 mg, n=5) was 3 (60.0) n (%). The “Best response: Stable disease ≥6 weeks” value (advanced solid tumours; 800 mg, n=5) was 1 (20.0) n (%), the “Best objective response: progression” value (advanced solid tumours; RECIST, all doses) was 14 n and the “Best objective response: stable disease for ≥6 weeks” value (advanced solid tumours; RECIST, all doses) was 13 n. The Objective response rate (advanced solid tumours; RECIST, all doses) was 0%, the “Patients with stable disease at Week 12” value (advanced solid tumours; five patients evaluable) was “four” and the “Prostate-specific antigen (PSA) levels” value (advanced solid tumours; one patient with prostate cancer) was “considerable reduction”. The “Increase in 4-β-hydroxycholesterol levels on Day 15 compared with Day 1” value (CYP3A4; five patients, 700 or 800 mg) was ~ 4 fold, the “4-β-hydroxycholesterol Day 15 concentration, Gmean (CV%)” value (CYP3A4; five subjects, 700 or 800 mg) was 114.1 (29.2) ng ml and the “4-β-hydroxycholesterol ratio (Day 15/Day 1), Gmean (CV%)” value (CYP3A4; five subjects, 700 or 800 mg) was 4.38 (23.9). The “4-β-hydroxycholesterol Day 15 concentration” value (CYP3A4; dose 700 mg) was 85.5 ng·mL and 91.9 ng·mL and 175 ng·mL, the “4-β-hydroxycholesterol ratio (Day 15/Day 1)” value (CYP3A4; dose 700 mg) was 3.41 and 5.93 and 4.90 and the “4-β-hydroxycholesterol Day 15 concentration” value (CYP3A4; dose 800 mg) was 128 ng·mL and 110 ng·mL. For the same compound, the “4-β-hydroxycholesterol ratio (Day 15/Day 1)” value (CYP3A4; dose 800 mg) was 4.67 and 3.49, the CYP3A4 activity (CYP3A4; multiple dosing, 700 or 800 mg) was “induced” and the “Patients with reductions in p4E-BP1 S65” value (p4E-BP1 S65; evaluable bone marrow samples, single dose) was 3/11. For the same compound, the “Patients with decreases in p4E-BP1 S65” value (p4E-BP1 S65; peripheral blood samples) was 4/7, the “Discontinued study treatment due to a lack of therapeutic response, patients” value (relapsed/refractory AML; 32 eligible patients) was 59.4% and the “Best response: CR” value (relapsed/refractory AML; [1]) was 0 n (%). For the same compound, the “Best response: CRi” value (relapsed/refractory AML; [1]) was 0 n (%), the “Best response: Morphologic leukaemia free” value (relapsed/refractory AML; [1]) was 0 n (%) and the “Best response: Non-response” value (relapsed/refractory AML; [1]) was 3 (75.0) n (%). The “Best response: Partial remission” value (relapsed/refractory AML; [1]) was 0 n (%), the “Best response: CR” value (relapsed/refractory AML; [2]) was 0 n (%) and the “Best response: CRi” value (relapsed/refractory AML; [2]) was 0 n (%). The “Best response: Morphologic leukaemia free” value (relapsed/refractory AML; [2]) was 0 n (%), the “Best response: Non-response” value (relapsed/refractory AML; [2]) was 3 (50.0) n (%) and the “Best response: Partial remission” value (relapsed/refractory AML; [2]) was 0 n (%). For the same compound, the “Best response: CR” value (relapsed/refractory AML; [3]) was 0 n (%), the “Best response: CRi” value (relapsed/refractory AML; [3]) was 0 n (%) and the “Best response: Morphologic leukaemia free” value (relapsed/refractory AML; [3]) was 0 n (%). The “Best response: Non-response” value (relapsed/refractory AML; [3]) was 3 (50.0) n (%), the “Best response: Partial remission” value (relapsed/refractory AML; [3]) was 0 n (%) and the “Best response: CR” value (relapsed/refractory AML; [4]) was 0 n (%). The “Best response: CRi” value (relapsed/refractory AML; [4]) was 0 n (%), the “Best response: Morphologic leukaemia free” value (relapsed/refractory AML; [4]) was 0 n (%) and the “Best response: Non-response” value (relapsed/refractory AML; [4]) was 1 (14.3) n (%). For the same compound, the “Best response: Partial remission” value (relapsed/refractory AML; [4]) was 0 n (%), the “Best response: CR” value (relapsed/refractory AML; [5]) was 0 n (%) and the “Best response: CRi” value (relapsed/refractory AML; [5]) was 0 n (%). The “Best response: Morphologic leukaemia free” value (relapsed/refractory AML; [5]) was 0 n (%), the “Best response: Non-response” value (relapsed/refractory AML; [5]) was 2 (22.2) n (%) and the “Best response: Partial remission” value (relapsed/refractory AML; [5]) was 0 n (%). For the same compound, the “Best response: CR” value (relapsed/refractory AML; [6]) was 0 n (%), the “Best response: CRi” value (relapsed/refractory AML; [6]) was 0 n (%) and the “Best response: Morphologic leukaemia free” value (relapsed/refractory AML; [6]) was 0 n (%). The “Best response: Non-response” value (relapsed/refractory AML; [6]) was 4 (100) n (%), the “Best response: Partial remission” value (relapsed/refractory AML; [6]) was 0 n (%) and the “Best response: CR” value (relapsed/refractory AML; [7]) was 0 n (%). For the same compound, the “Best response: CRi” value (relapsed/refractory AML; [7]) was 0 n (%), the “Best response: Morphologic leukaemia free” value (relapsed/refractory AML; [7]) was 0 n (%) and the “Best response: Non-response” value (relapsed/refractory AML; [7]) was 6 (100) n (%). The “Best response: Partial remission” value (relapsed/refractory AML; [7]) was 0 n (%), the “Best response: CR” value (relapsed/refractory AML; [8]) was 0 n (%) and the “Best response: CRi” value (relapsed/refractory AML; [8]) was 0 n (%). For the same compound, the “Best response: Morphologic leukaemia free” value (relapsed/refractory AML; [8]) was 0 n (%), the “Best response: Non-response” value (relapsed/refractory AML; [8]) was 6 (100) n (%) and the “Best response: Partial remission” value (relapsed/refractory AML; [8]) was 0 n (%). For the same compound, the “Best response: CR” value (relapsed/refractory AML; [9]) was 0 n (%), the “Best response: CRi” value (relapsed/refractory AML; [9]) was 0 n (%) and the “Best response: Morphologic leukaemia free” value (relapsed/refractory AML; [9]) was 0 n (%). For the same compound, the “Best response: Non-response” value (relapsed/refractory AML; [9]) was 7 (100) n (%), the “Best response: Partial remission” value (relapsed/refractory AML; [9]) was 0 n (%) and the “Best response: CR” value (relapsed/refractory AML; [10]) was 0 n (%). The “Best response: CRi” value (relapsed/refractory AML; [10]) was 0 n (%), the “Best response: Morphologic leukaemia free” value (relapsed/refractory AML; [10]) was 0 n (%) and the “Best response: Non-response” value (relapsed/refractory AML; [10]) was 9 (100) n (%). For the same compound, the “Best response: Partial remission” value (relapsed/refractory AML; [10]) was 0 n (%) and the “Clinical responses according to IWG criteria” value (relapsed/refractory AML; all doses) was “no clinical responses”.
